# In patent US20250332173A1, “COMPOUNDS AND METHODS FOR MODULATING NUCLEIC ACID SPLICING” (REMIX THERAPEUTICS INC., priority 2021, published 2025):
# pIC50: −log10 of the molar value. Where a name gives a salt, the structure may show the parent alone. Read-outs that look alike come from different tables or passages of the source.
# Legend:
# HTT mRNA = test: RT-qPCR splicing assay, HTT canonical junction (CJ) and alternative junction (AJ) mRNA; type: cell-based, human; conditions: Homo sapiens; for AC50: increase in HTT alternative junction (AJ) mRNA, read-out: HTT AJ AC50
# Summary of the method: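 A673 cells (normalized to PPIA) or K562 cells (normalized to GAPDH or GUSB) were treated 24 h at 37 °C with an 11-point 3-fold dilution series, top 10 uM, DMSO ≤0.25%. Cell lysates went to one-step RT-qPCR measuring canonical- and alternative-junction MYB or HTT transcripts.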
# [1] = test system: K562 (human chronic myelogenous leukemia) cells; test: Cell Titer Glo 2.0 cell viability assay; type: cell-based; conditions: Homo sapiens, K562, 72 h, K562 cells, 72 hours, Cell Titer Glo 2.0; read-out: K562 GI50
# SMN2 mRNA = test: RT-qPCR splicing assay, SMN2 canonical junction (CJ) mRNA; type: cell-based, human; conditions: Homo sapiens; Table 5 panel; canonical junction qPCR; compound concentration having 50% response in CJ decrease; read-out: SMN2 IC50 (decrease in CJ mRNA levels)
# Summary of the method: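 Canonical-junction transcript levels in compound-treated A673 or K562 cells (24 h, up to 10 uM final) were determined from lysates by RT-qPCR with housekeeping-gene normalization.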
# [2] = decrease in HTT canonical junction (CJ) mRNA, RT-qPCR, read-out: HTT CJ IC50
# [3] = Table 5 panel, canonical junction qPCR, compound concentration having 50% response in CJ decrease, read-out: HTT IC50 (decrease in CJ mRNA levels)
Structure (SMILES),pIC50 (HTT mRNA; [2]),AC50 (HTT mRNA; RT-qPCR),pIC50 (HTT mRNA; [3]),GI50 [1],pIC50 (SMN2 mRNA)
"Cc1cn2nc(-c3ccc4c(=O)n(C5CCNCC5)ccc4c3)cc(CC(=O)O)c2n1 [Compound 531, 2-[2-methyl-6-[1-oxo-2-(4-piperidyl)-6-isoquinolyl]imidazo[1,2-b]pyridazin-8-yl]acetic acid]",6.00 to 7.00,< 100 nM,> 7.00,100 to 1000 nM,> 7.00
"Cn1cc2c(=O)n(-c3ccc4c(=O)n(C5CCNCC5)ccc4c3)ccc2n1 [Compound 530, 6-{2-methyl-4-oxopyrazolo[4,3-c]pyridin-5-yl}-2-(piperidin-4-yl)isoquinolin-1-one]",< 5.00,> 10000 nM,< 5.00,> 10000 nM,< 5.00
"CNc1cc(-c2cc(C)c3nc(C)cn3n2)cc2ccn([C@H]3CCNC3)c(=O)c12 [Compound 647, 6-(2,8-dimethylimidazo[1,2-b]pyridazin-6-yl)-8-(methylamino)-2-[(3S)-pyrrolidin-3-yl]isoquinolin-1-one]",< 5.00,1000 to 10000 nM,5.00 to 6.00,1000 to 10000 nM,6.00 to 7.00
"Cc1cn2cc(-c3cc(F)c4c(=O)n([C@@H]5C[C@@H](C)N[C@@H](C)C5)ccc4c3)cc(F)c2n1 [Compound 642, 2-[(2S,6R)-2,6-dimethyl-4-piperidyl]-8-fluoro-6-(8-fluoro-2-methyl-imidazo[1,2-a]pyridin-6-yl)isoquinolin-1-one]",5.00 to 6.00,100 to 1000 nM,6.00 to 7.00,1000 to 10000 nM,> 7.00
"Cc1cn2nc(-c3ccc4c(=O)n(C5CCNCC5)ccc4c3)cc(Cc3nnn[nH]3)c2n1 [Compound 536, 6-[2-methyl-8-(1H-tetrazol-5-ylmethyl)imidazo[1,2-b]pyridazin-6-yl]-2-(4-piperidyl) isoquinolin-1-one]",< 5.00,> 10000 nM,< 5.00,> 10000 nM,5.00 to 6.00
"Cc1cn2cc(-c3cc4ncn(C5CCNCC5)c(=O)c4cc3F)cc(F)c2n1 [Compound 586, 6-fluoro-7-{8-fluoro-2-methylimidazo[1,2-a]pyridin-6-yl}-3-(piperidin-4-yl)quinazolin-4-one]",5.00 to 6.00,100 to 1000 nM,6.00 to 7.00,100 to 1000 nM,> 7.00
"Cc1cn2nc(-c3ccc4c(=O)n(C5CCNCC5)ccc4c3)cc(CC#N)c2n1 [Compound 520, 2-[2-methyl-6-[1-oxo-2-(4-piperidyl)-6-isoquinolyl]imidazo[1,2-b]pyridazin-8-yl]acetonitrile]",6.00 to 7.00,100 to 1000 nM,6.00 to 7.00,1000 to 10000 nM,> 7.00
"Cc1cn2nc(-c3ccc4c(=O)n(C5CCNCC5)ccc4c3)cc(C(=O)N(C)C)c2n1 [Compound 524, N, N, 2-trimethyl-6-[1-oxo-2-(4-piperidyl)-6-isoquinolyl]imidazo[1,2-b]pyridazine-8-carboxamide]",< 5.00,> 10000 nM,< 5.00,> 10000 nM,< 5.00
Cc1cn2nc(-c3ccn4c(=O)c(C5=CCNCC5)ncc4c3)cc(C)c2n1 [Compound 1182],6.00 to 7.00,100 to 1000 nM,6.00 to 7.00,100 to 1000 nM,6.00 to 7.00
"CNC(=O)c1cc(-c2ccc3c(=O)n(C4CCNCC4)ccc3c2)nn2cc(C)nc12 [Compound 518, N, 2-dimethyl-6-[1-oxo-2-(4-piperidyl)-6-isoquinolyl]imidazo[1,2-b]pyridazine-8-carboxamide]",< 5.00,> 10000 nM,< 5.00,1000 to 10000 nM,6.00 to 7.00
"C=Cc1cn(C2CCNCC2)c(=O)c2c(F)cc(-c3cc(F)c4nc(C)cn4c3)cc12 [Compound 559, 4-ethenyl-8-fluoro-6-{8-fluoro-2-methylimidazo[1,2-a]pyridin-6-yl}-2-(piperidin-4-yl)isoquinolin-1-one]",6.00 to 7.00,< 100 nM,> 7.00,< 100 nM,> 7.00
CNC1CCN(c2ccc3cc(-c4cc(C)c5nc(C)cn5n4)ccn3c2=O)C1 (centres unmarked) [Compound 1158],5.00 to 6.00,100 to 1000 nM,6.00 to 7.00,100 to 1000 nM,> 7.00
"Cc1cn2nc(-c3ccc4c(=O)n(C5CCNCC5)ccc4c3)cc(-n3ccccc3=O)c2n1 [Compound 552, 6-[2-methyl-8-(2-oxo-1-pyridyl)imidazo[1,2-b]pyridazin-6-yl]-2-(4-piperidyl)isoquinolin-1-one]",< 5.00,> 10000 nM,< 5.00,> 10000 nM,< 5.00
"Cc1cn2nc(-c3ccc4c(=O)n(C5CCNCC5)ccc4c3)cc(-n3ccc(=O)cc3)c2n1 [Compound 551, 6-[2-methyl-8-(4-oxo-1-pyridyl)imidazo[1,2-b]pyridazin-6-yl]-2-(4-piperidyl)isoquinolin-1-one]",6.00 to 7.00,100 to 1000 nM,6.00 to 7.00,100 to 1000 nM,6.00 to 7.00
"COC(=O)c1cc(-c2ccc3c(=O)n(C4CCNCC4)ccc3c2)nn2cc(C)nc12 [Compound 517, methyl 2-methyl-6-[1-oxo-2-(4-piperidyl)-6-isoquinolyl]imidazo[1,2-b]pyridazine-8-carboxylate]",5.00 to 6.00,1000 to 10000 nM,5.00 to 6.00,1000 to 10000 nM,> 7.00
"CC(=O)Nc1cc(-c2cc(C)c3nc(C)cn3n2)cc2ccn([C@H]3CCNC3)c(=O)c12 [Compound 649, N-[6-(2,8-dimethylimidazo[1,2-b]pyridazin-6-yl)-1-oxo-2-[(3S)-pyrrolidin-3-yl]-8-isoquinolyl]acetamide]",5.00 to 6.00,1000 to 10000 nM,5.00 to 6.00,1000 to 10000 nM,6.00 to 7.00
CCN1CCC(n2ncc3cc(-c4cc(C)c5nc(C)cn5n4)cc(F)c3c2=O)CC1 [Compound 537],> 7.00,< 100 nM,> 7.00,100 to 1000 nM,> 7.00
Cc1cn2nc(-c3cc(F)c4c(=O)n(C5CCN(CCF)CC5)ncc4c3)cc(C)c2n1 [Compound 538],> 7.00,< 100 nM,> 7.00,100 to 1000 nM,> 7.00
CN1CCC(c2ccc3c(=O)n(-c4ccc5nn(C)cc5c4)cnc3c2)CC1 [Compound 177],< 5.00,> 10000 nM,< 5.00,> 10000 nM,< 5.00
"Cc1cn2nc(-c3ccc4c(=O)n(C5CCNCC5)ccc4c3)cc(C(=O)O)c2n1 [Compound 516, 2-methyl-6-[1-oxo-2-(4-piperidyl)-6-isoquinolyl]imidazo[1,2-b]pyridazine-8-carboxylic acid]",5.00 to 6.00,1000 to 10000 nM,5.00 to 6.00,1000 to 10000 nM,5.00 to 6.00
Cc1nc2c(C)cc(-c3ccc4c(=O)n(C5CCNC6(CC6)C5)ncc4c3)cc2o1 (centres unmarked) [Compound 513],6.00 to 7.00,100 to 1000 nM,6.00 to 7.00,1000 to 10000 nM,6.00 to 7.00
"Cc1cn2nc(-c3cc(N)c4c(=O)n([C@@H]5CCNC5)ccc4c3)cc(C)c2n1 [Compound 646, 8-amino-6-(2,8-dimethylimidazo[1,2-b]pyridazin-6-yl)-2-[(3R)-pyrrolidin-3-yl]isoquinolin-1-one]",< 5.00,> 10000 nM,< 5.00,1000 to 10000 nM,6.00 to 7.00
Cc1cn2nc(-c3cc(O)c4c(=O)n(C5CCN(C)CC5)ncc4c3)cc(C)c2n1 [Compound 543],6.00 to 7.00,< 100 nM,> 7.00,100 to 1000 nM,> 7.00
"Cc1cn2nc(-c3ccc4c(=O)n(C5CCNCC5)ccc4c3)cc(CCO)c2n1 [Compound 533, 6-[8-(2-hydroxyethyl)-2-methyl-imidazo[1,2-b]pyridazin-6-yl]-2-(4-piperidyl)isoquinolin-1-one]",6.00 to 7.00,100 to 1000 nM,6.00 to 7.00,100 to 1000 nM,> 7.00
Cc1cn2cc(-c3cc(F)c4c(=O)n([C@H]5CNC[C@@H]5F)ccc4c3)cc(F)c2n1 [Compound 644],< 5.00,> 10000 nM,< 5.00,1000 to 10000 nM,6.00 to 7.00
Cn1cc2cc(-c3ncc4c(=O)n(C5CCNCC5)ccc4n3)c(O)c(F)c2n1 [Compound 1123],6.00 to 7.00,< 100 nM,> 7.00,< 100 nM,> 7.00
"CC(=O)Nc1cc(-c2cc(C)c3nc(C)cn3n2)cc2ccn([C@@H]3CCNC3)c(=O)c12 [Compound 650, N-[6-(2,8-dimethylimidazo[1,2-b]pyridazin-6-yl)-1-oxo-2-[(3R)-pyrrolidin-3-yl]-8-isoquinolyl]acetamide]",< 5.00,> 10000 nM,< 5.00,1000 to 10000 nM,5.00 to 6.00
"COc1cc(-c2ccc3c(=O)n(C4CCNCC4)ccc3c2)nn2cc(C)nc12 [Compound 514, 6-(8-methoxy-2-methyl-imidazo[1,2-b]pyridazin-6-yl)-2-(4-piperidyl) isoquinolin-1-one; hydrochloride]",> 7.00,< 100 nM,> 7.00,< 100 nM,> 7.00
